This passage reports chromatographic logP and pest or weed control results from patent US20090030024A1, “THIAZOLES AS FUNGICIDES” (priority 2005, published 2009).

A value given as a limit tells only on which side of the number the result lay.

The chromatographic logP is a lipophilicity value derived from retention on a column.

Tested on in the first series: not listed separately
As to the kind of experiment: logP determination by retention times (calibration with alkan-2-ones).
Settings: not given
Consider `COCCOC(=O)Nc1ccc(Nc2nccc(-c3sc(N)nc3C)n2)cc1` [Example 69, 2-methoxyethyl-(4-{[4-(2-amino-4-methyl-1,3-thiazol-5-yl)pyrimidin-2-yl]amino}phenyl)carbamate], for which the chromatographic logP is 1.4.
The same measure, in the same setting: the result for `Cc1nc(C)c(-c2ccnc(Nc3ccc(F)cc3)n2)s1` [Example 186, 4-(2,4-dimethyl-1,3-thiazol-5-yl)-N-(4-fluorophenyl)pyrimidine-2-amine] reads 2.65.

Staying with this series, now noted: logP, values marked *: HPLC on reversed-phase C 18, 40° C., mobile phase 0.1% aqueous formic acid and acetonitrile, linear gradient 10% to 95% acetonitrile.
In turn, `CCc1nc(C)c(-c2ccnc(Nc3ccc(C(=O)OCCOC)cc3)n2)s1` [Example 881, 2-methoxyethyl-4-{[4-(2-ethyl-4-methyl-1,3-thiazol-5-yl)pyrimidin-2-yl]amino}benzoate] had a chromatographic logP of 2.91.
In the case of `Cc1nc(C(C)(C)C)sc1-c1ccnc(Nc2ccccc2)n1` [Example 882, 4-(2-tert-butyl-4-methyl-1,3-thiazol-5-yl)-N-phenylpyrimidine-2-amine], the chromatographic logP was 4.24.
The compound `Cc1nc(C(C)(C)C)sc1-c1ccnc(Nc2ccc(F)cc2)n1` [Example 883, 4-(2-tert-butyl-4-methyl-1,3-thiazol-5-yl)-N-(4-fluorophenyl)pyrimidine-2-amine] showed a chromatographic logP of 4.18.
Take `Cc1nc(C(C)(C)C)sc1-c1ccnc(Nc2cccc(Cl)c2)n1` [Example 884, 4-(2-tert-butyl-4-methyl-1,3-thiazol-5-yl)-N-(3-chlorophenyl)pyrimidine-2-amine]: the chromatographic logP came out at 4.82.
Regarding `CC(=O)c1ccc(Nc2nccc(-c3sc(C(C)(C)C)nc3C)n2)cc1` [Example 885, 1-(4-{[4-(2-tert-butyl-4-methyl-1,3-thiazol-5-yl)pyrimidin-2-yl]amino}phenyl)ethanone], the chromatographic logP came out at 4.22.
Still for that read-out and setting: the result for `COc1ccc(Nc2nccc(-c3sc(C(C)(C)C)nc3C)n2)cn1` [Example 886, 4-(2-tert-butyl-4-methyl-1,3-thiazol-5-yl)-N-(6-methoxypyridin-3-yl)pyrimidine-2-amine] reads 3.42.
In the case of `CC(=O)c1cccc(Nc2nccc(-c3sc(C(C)(C)C)nc3C)n2)c1` [Example 887, 1-(3-{[4-(2-tert-butyl-4-methyl-1,3-thiazol-5-yl)pyrimidin-2-yl]amino}phenyl)ethanone], the chromatographic logP stood at 3.66.
On the same count and under the same terms, then `COc1cc(Nc2nccc(-c3sc(C(C)(C)C)nc3C)n2)cc(OC)c1OC` [Example 888, 4-(2-tert-butyl-4-methyl-1,3-thiazol-5-yl)-N-(3,4,5-trimethoxyphenyl)pyrimidine-2-amine], with 3.48; and `COCC(C)Nc1nc(C)c(-c2ccnc(Nc3ccc4c(c3)C(=O)OC4)n2)s1` (stereo not shown) [Example 889, 6-[(4-{2-[(2-methoxy-1-methylethyl)amino]-4-methyl-1,3-thiazol-5-yl}pyrimidin-2-yl)amino]-2-benzofuran-1(3H)-one], with 1.65; and `COCCNc1nc(C)c(-c2ccnc(Nc3ccc4c(c3)C(=O)OC4)n2)s1` [Example 890, 6-[(4-{2-[(2-methoxyethyl)amino]4-methyl-1,3-thiazol-5-yl}pyrimidin-2-yl)amino]-2-benzofuran-1(3H)-one], with 1.53.
Take `Cc1nc(NCCO)sc1-c1ccnc(Nc2ccc(F)cc2)n1` [Example 891, 2-[(5-{2-[(4-fluorophenyl)amino]pyrimidin-4-yl}-4-methyl-1,3-thiazol-2-yl)amino]ethanol]: the chromatographic logP worked out at 1.5.
Same read-out and setting: the result for `COCCNc1nc(C)c(-c2ccnc(Nc3ccc(C)c(C)c3)n2)s1` [Example 896, N-(3,4-dimethylphenyl)-4-{2-[(2-methoxyethyl)amino]-4-methyl-1,3-thiazol-5-yl}pyrimidine-2-amine] reads 2.08; that for `COCCNc1nc(C)c(-c2ccnc(Nc3ccc(F)c(F)c3)n2)s1` [Example 897, N-(3,4-difluorophenyl)-4-{2-[(2-methoxyethyl)amino]-4-methyl-1,3-thiazol-5-yl}pyrimidine-2-amine], 2.15; that for `COCCNc1nc(C)c(-c2ccnc(Nc3ccc(Cl)cc3)n2)s1` [Example 898, N-(4-chlorophenyl)-4-{2-[(2-methoxyethyl)amino]-4-methyl-1,3-thiazol-5-yl}pyrimidine-2-amine], 2.24.
The same measure, in the same setting: then `COCCOc1nc(C)c(-c2ccnc(Nc3ccc(F)cc3)n2)s1` [Example 899, N-(4-fluorophenyl)-4-[2-(2-methoxyethoxy)-4-methyl-1,3-thiazol-5-yl]pyrimidine-2-amine], with 3.12; and `COCCOc1nc(C)c(-c2ccnc(Nc3ccccc3)n2)s1` [Example 901, 4-[2-(2-methoxyethoxy)-4-methyl-1,3-thiazol-5-yl]-N-phenylpyrimidine-2-amine], with 3.01.
`CCc1nc(C)c(-c2nc(Nc3ccccc3)ncc2Br)s1` [Example 902, 5-bromo-4-(2-ethyl-4-methyl-1,3-thiazol-5-yl)-N-phenylpyrimidine-2-amine] registered a chromatographic logP of 3.82.
The same measure, in the same setting: then `Cc1nc(C(C)C)sc1-c1nc(Nc2ccccc2)ncc1Cl` [Example 903, 5-chloro-4-(2-isopropyl-4-methyl-1,3-thiazol-5-yl)-N-phenylpyrimidine-2-amine], with 4.27.
Still for that read-out and setting: then `Cc1nc(C(C)C)sc1-c1nc(Nc2ccccc2)ncc1Br` [Example 904, 5-bromo-4-(2-isopropyl-4-methyl-1,3-thiazol-5-yl)-N-phenylpyrimidine-2-amine], with 4.32; and `CCc1nc(C)c(-c2nc(Nc3cc(OC)c(OC)c(OC)c3)ncc2Br)s1` [Example 905, 5-bromo-4-(2-ethyl-4-methyl-1,3-thiazol-5-yl)-N-(3,4,5-trimethoxyphenyl)pyrimidine-2-amine], with 3.29.
On the same count and under the same terms, the result for `COc1cc(Nc2ncc(Br)c(-c3sc(C)nc3C)n2)cc(OC)c1OC` [Example 906, 5-bromo-4-(2,4-dimethyl-1,3-thiazol-5-yl)-N-(3,4,5-trimethoxyphenyl)pyrimidine-2-amine] reads 2.85.
`CCc1nc(C)c(-c2nc(Nc3cc(OC)c(OC)c(OC)c3)ncc2Cl)s1` [Example 907, 5-chloro-4-(2-ethyl-4-methyl-1,3-thiazol-5-yl)-N-(3,4,5-trimethoxyphenyl)pyrimidine-2-amine] showed a chromatographic logP of 3.2.
`COc1cc(Nc2ncc(Br)c(-c3sc(C(C)C)nc3C)n2)cc(OC)c1OC` [Example 908, 5-bromo-4-(2-isopropyl-4-methyl-1,3-thiazol-5-yl)-N-(3,4,5-trimethoxyphenyl)pyrimidine-2-amine] returned a chromatographic logP of 3.65.
Still for that read-out and setting: then `Cc1nc(C)c(-c2nc(Nc3ccccc3)ncc2Br)s1` [Example 909, 5-bromo-4-(2,4-dimethyl-1,3-thiazol-5-yl)-N-phenylpyrimidine-2-amine], with 3.3; and `COCCOc1nc(C)c(-c2ccnc(Nc3cc(OC)c(OC)c(OC)c3)n2)s1` [Example 910, 4-[2-(2-methoxyethoxy)-4-methyl-1,3-thiazol-5-yl]-N-(3,4,5-trimethoxyphenyl)pyrimidine-2-amine], with 2.53; and `COCCOc1nc(C)c(-c2ccnc(Nc3cccc([N+](=O)[O-])c3)n2)s1` [Example 911, 4-[2-(2-methoxyethoxy)-4-methyl-1,3-thiazol-5-yl]-N-(3-nitrophenyl)pyrimidine-2-amine], with 3.08.
`COCCOc1nc(C)c(-c2ccnc(Nc3cccc(C(C)=O)c3)n2)s1` [Example 912, 1-[3-({4-[2-(2-methoxyethoxy)-4-methyl-1,3-thiazol-5-yl]pyrimidin-2-yl}amino)phenyl]ethanone] gave a chromatographic logP of 2.64.
On the same count and under the same terms, the result for `COCCOc1nc(C)c(-c2ccnc(Nc3cccc(Cl)c3)n2)s1` [Example 913, N-(3-chlorophenyl)-4-[2-(2-methoxyethoxy)-4-methyl-1,3-thiazol-5-yl]pyrimidine-2-amine] reads 3.57; that for `COCCOc1nc(C)c(-c2ccnc(Nc3cccc(OC)c3)n2)s1` [Example 914, 4-[2-(2-methoxyethoxy)-4-methyl-1,3-thiazol-5-yl]-N-(3-methoxyphenyl)pyrimidine-2-amine], 2.92.
As for `COCCOc1nc(C)c(-c2ccnc(Nc3ccc(OC)nc3)n2)s1` [Example 915, 4-[2-(2-methoxyethoxy)-4-methyl-1,3-thiazol-5-yl]-N-(6-methoxypyridin-3-yl)pyrimidine-2-amine], the chromatographic logP was determined as 2.34.
`COCCOc1nc(C)c(-c2ccnc(Nc3ccc(C(C)=O)cc3)n2)s1` [Example 916, 1-[4-({4-[2-(2-methoxyethoxy)-4-methyl-1,3-thiazol-5-yl]pyrimidin-2-yl}amino)phenyl]ethanone] showed a chromatographic logP of 2.58.
Same read-out and setting: then `COCCOc1nc(C)c(-c2ccnc(Nc3ccc(N4CCCC4=O)cc3)n2)s1` [Example 917, 1-[4-({4-[2-(2-methoxyethoxy)-4-methyl-1,3-thiazol-5-yl]pyrimidin-2-yl}amino)phenyl]pyrrolidin-2-one], with 2.23.
On the same count and under the same terms, then `Cc1nc(C(C)C)sc1-c1ccnc(Nc2cccnc2)n1` [Example 919, 4-(2-isopropyl-4-methyl-1,3-thiazol-5-yl)-N-pyridin-3-ylpyrimidine-2-amine], with 1.51.
Same read-out and setting: the result for `CCc1nc(C)c(-c2nc(Nc3cccc(Cl)c3)ncc2Br)s1` [Example 920, 5-bromo-N-(3-chlorophenyl)-4-(2-ethyl-4-methyl-1,3-thiazol-5-yl)pyrimidine-2-amine] reads 4.36; that for `CCc1nc(C)c(-c2nc(Nc3ccc(S(=O)(=O)N(C)C)cc3)ncc2Br)s1` [Example 921, 4-{[5-bromo-4-(2-ethyl-4-methyl-1,3-thiazol-5-yl)pyrimidin-2-yl]amino}-N,N-dimethylbenzenesulphonamide], 3.36; that for `Cc1nc(C(C)C)sc1-c1nc(Nc2cccc(Cl)c2)ncc1Br` [Example 922, 5-bromo-N-(3-chlorophenyl)-4-(2-isopropyl-4-methyl-1,3-thiazol-5-yl)pyrimidine-2-amine], 4.9.

The next series relates to Phytophthora infestans. Description: whole plant or invertebrate. It is filed as in vivo. The following applies: in Solanum lycopersicum, 168 h, read-out: efficacy.
With `COCCOC(=O)Nc1ccc(Nc2nccc(-c3sc(N)nc3C)n2)cc1` [Example 69, 2-methoxyethyl-(4-{[4-(2-amino-4-methyl-1,3-thiazol-5-yl)pyrimidin-2-yl]amino}phenyl)carbamate], the pest or weed control at 500 ppm is not below 70%.
Still for that read-out and setting: the result for `Cc1nc(C)c(-c2ccnc(Nc3ccc(F)cc3)n2)s1` [Example 186, 4-(2,4-dimethyl-1,3-thiazol-5-yl)-N-(4-fluorophenyl)pyrimidine-2-amine] reads not below 70%.
